{
  "source": "patent US20230218657A1",
  "about": "“COMPOSITIONS, THEIR USES IN THERAPY AND METHODS THEREOF” (National University of Singapore, priority 2020, published 2023)",
  "type_in_all_cases": "in vivo",
  "key": {"[1]": {"test_system": "apoE-/- mice", "assay": "Footpad tissue edema / swelling observed macroscopically in apoE-/- mice", "from_the_text": "(§1) To evaluate the effect of cyclodextrin on secondary lymphedema, an animal model of lymphatic insufficiency that mimics human pathophysiology of lymphedema was used, e.g adipose tissue remodeling, lipid accumulation, inflammation and fibrosis. This mouse model can be apoE lipoprotein E deficient mice. […] It is believed that this lymphatic insufficiency leads to adipose tissue expansion and then loss and fibrosis as also observed in human secondary lymphedema. To confirm this, female apoE-/- mice were treated with 2 g/kg body of cyclodextrin […] subcutaneously or vehicle alone (saline) subcutaneously every alternative day for a total of 2, 4 or 8 doses. Mice were euthanized, tissue swelling was observed macroscopically and lymphatic transport was examined by following up the transport of FITC dextran from the front footpad to the draining lymph nodes. Skin tissues was also examined histologically for lipid content (Oil red O staining).\nFIG. 1 illustrates images of footpads from female wild-type (WT) or apoE-/-mice after receiving subcutaneous injection of cyclodextrin (CD; 2 g/kg body weight) or saline (control, NT) every alternative day for a total of 4 doses and harvested when mice were 17 weeks old on high fat diet. Swelling of the footpad of the mice was observed macroscopically (arrow heads: swelling region)."}, "[2]": {"test_system": "apoE-/- mice", "assay": "Oil red O staining of footpad skin for lipid accumulation", "conditions": "2 g/kg subcutaneous, alternate days, 4 doses; female apoE-/- mice, 17 weeks old, high fat diet; vs saline", "from_the_text": "as §1\nFIG. 2 illustrates microscopic images of female WT or apoE-/- mice after receiving subcutaneous injection of cyclodextrin (CD; 2 g/kg body weight) or saline (control, NT) every alternative day for a total of 4 doses and harvested when mice were 17 weeks old on high fat diet. Section of footpad skin were stained for neutral lipid with Oil red O (red staining) to identify lipid accumulation in the tissue."}, "[3]": {"test_system": "apoE-/- mice", "assay": "Lymphatic transport of FITC dextran from footpad to draining lymph node", "from_the_text": "as §1\nFIG. 3 plots the relative fluorescence in the lymph nodes of respective female WT or apoE-/- mice after receiving subcutaneous injection of cyclodextrin (CD; 2 g/kg body weight) or Saline (control, NT) every alternative day for a total of 4 doses. The mice were harvested when the mice were 17 weeks old on high fat diet. Lymphatic drainage was assessed by measuring the transport of fluorescent dextran from the footpad (site of injection) to the draining lymph node.\nFIG. 4 plots the relative fluorescence in the lymph nodes of the respective mice under a different dosage regime."}, "[4]": {"test_system": "apoE-/- mice", "assay": "Total cholesterol in front footpad and plasma cholesterol", "from_the_text": "Cyclodextrin was administrated subcutaneously alternate days."}, "[5]": {"test_system": "apoE-/- mice", "assay": "Masson's Trichrome staining of back skin (fibrosis, collagen deposition)", "conditions": "17 weeks old, particularly the 8 doses regime", "method": "(§2) The formulation was assessed if it can reverses some tissue changes associated with lymphedema including fibrosis and inflammation.\nCollagen was stained in blue, muscle and cytoplasm was stained in red and the nucleus was stained in black."}, "[6]": {"test_system": "apoE-/- mice", "assay": "CD68 immunofluorescence staining of back skin (inflammation, macrophage infiltration)", "conditions": "17 weeks old, particularly the 8 doses regime", "method": "as §2\nCD68 is a pan-macrophage marker, perilipin was used to identify adipocytes and DAPI stains for the nucleus."}, "[7]": {"conditions": "8 doses, apoE-/- mice at 42 weeks of age (greater severity)"}},
  "note": "“Also recorded” adds a separate entry of the source.",
  "data": [
    {"substance": "cyclodextrin", "values": [
      {"measurement": "tissue edema / footpad swelling", "setting": "[1]; 2 g/kg subcutaneous, alternate days, 4 doses, female apoE-/- mice, 17 weeks old, high fat diet, vs saline", "result": "improved significantly tissue edema in the footpad; also recorded: decreased footpad swelling"},
      {"measurement": "tissue swelling", "setting": "[1]; [7]", "result": "not able to improve lymphatic function and ameliorate tissue changes such as tissue swelling"},
      {"measurement": "reducing lymphedema", "setting": "[1]; intradermal injection, animal model of lymphedema (summary statement)", "result": "effective in reducing lymphedema"},
      {"measurement": "lipid accumulation in footpad skin (Oil red O staining)", "setting": "[2]", "result": "decreased lipid accumulation; also recorded: decreased accumulation of lipids"},
      {"measurement": "lymphatic function", "setting": "[3]; 2 g/kg subcutaneous, alternate days, 2 doses, female apoE-/- mice, 17 weeks old", "result": "improved lymphatic function but in lesser extent compared to 4 doses; also recorded: sufficient to improve lymphatic function"},
      {"measurement": "lymphatic transport / lymphatic function", "setting": "[3]; 2 g/kg subcutaneous, alternate days, 4 doses, female apoE-/- mice, 17 weeks old", "result": "completely restored lymphatic transport; also recorded: restoring completely lymphatic function; also recorded: completely restored it"},
      {"measurement": "lymphatic function", "setting": "[3]; 2 g/kg subcutaneous, alternate days, 8 doses, female apoE-/- mice, 17 weeks old, compared to 4 doses", "result": "did not further enhance lymphatic function; also recorded: did not improve further lymphatic function"},
      {"measurement": "lymphatic function", "setting": "[3]; [7]", "result": "not able to improve lymphatic function"},
      {"measurement": "plasma cholesterol levels", "setting": "[4]; apoE-/- mice treated with cyclodextrin", "result": "does not affect plasma cholesterol levels"},
      {"measurement": "tissue cholesterol (total cholesterol in front footpad)", "setting": "[4]; subcutaneous, alternate days, 4 or 8 doses, apoE-/- mice, 17 weeks old", "result": "reduces tissue cholesterol; also recorded: decreased total cholesterol levels in the front foot pad"},
      {"measurement": "fibrosis (collagen deposition) in back skin", "setting": "[5]", "result": "reduces fibrosis"},
      {"measurement": "inflammation (infiltration of macrophages in adipose tissue, CD68) in back skin", "setting": "[6]", "result": "reduces fibrosis (FIG. 7A) and inflammation; also recorded: the extent of macrophage accumulation and crown-like structures (white boxes) decreases"}
    ]}
  ]
}
